Reference: patent USRE39591E1, “6-O-substituted ketolides having antibacterial activity” (Abbott Laboratories, priority 1996, dated 2007)
Converted amounts (≈) assume the structure as drawn.

Test system: up to 32 different microorganisms
Test: in vitro antibacterial activity (MIC), agar dilution on Brain Heart Infusion (BHI) agar with Steers replicator
Type: cell-based
Conditions: unit assumed
Procedure, shortened: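 Up to 32 strains were replicator-inoculated (1:100, or 1:10 for Micrococcus and Streptococcus) onto BHI agar plates holding serial compound dilutions and kept 20-24 h at 35-37° C. Plates were read visually against drug-free growth controls, with erythromycin A run alongside; MIC was the lowest concentration giving no growth, slight haze or sparse colonies.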

In the case of `CCC1OC(=O)C(C)C(=O)C(C)C(OC2OC(C)CC(N(C)C)C2O)C(C)(OCC=Cc2ccc3cc(O)ccc3c2)CC(C)C(=O)C(C)C2NC(=O)OC12C` (stereo not drawn) [Example 287, Compound of Formula (IX): L is CO, T is NH2, R is —CH2CH═CH-(6-hydroxy-2-naphthyl)], the MIC (organism code AA) is reported as 0.1 µg/mL, the MIC (organism code BB) is reported as 0.1 µg/mL and the MIC (organism code CC) is reported as greater than 100 µg/mL. It also gave an MIC (organism code DD) of 0.1 µg/mL, an MIC (organism code EE) of 0.1 µg/mL and an MIC (organism code FF) of 0.02 µg/mL. For the same compound, the MIC (organism code GG) was greater than 100 µg/mL, the MIC (organism code HH) was 0.1 µg/mL and the MIC (organism code II) was 0.05 µg/mL. It also gave an MIC (organism code JJ) of 0.02 µg/mL, an MIC (organism code KK) of 0.02 µg/mL and an MIC (organism code LL) of 0.02 µg/mL. It also gave an MIC (organism code MM) of 3.1 µg/mL, an MIC (organism code NN) of 0.1 µg/mL and an MIC (organism code OO) of 0.02 µg/mL. It also gave an MIC (organism code PP) of 0.2 µg/mL, an MIC (organism code QQ) of 50 µg/mL and an MIC (organism code RR) of 0.39 µg/mL. The MIC (organism code SS) was greater than 100 µg/mL, the MIC (organism code TT) was greater than 100 µg/mL and the MIC (organism code UU) was 0.39 µg/mL. For the same compound, the MIC (organism code VV) was 0.05 µg/mL, the MIC (organism code WW) was 2 µg/mL and the MIC (organism code XX) was 0.03 µg/mL. It also gave an MIC (organism code YY) of 0.03 µg/mL, an MIC (organism code ZZ) of 4 µg/mL and an MIC (organism code ZZA) of 0.5 µg/mL.

`CC[C@H]1OC(=O)[C@H](C)C(=O)[C@H](C)[C@@H](O[C@@H]2O[C@H](C)C[C@H](N(C)C)[C@H]2O)[C@@](C)(OCC=NO)C[C@@H](C)C(=O)[C@H](C)[C@@H](O)[C@]1(C)O` [Example 5, Compound of Formula (VIII): X is O, R is —CH2CH═NOH] gave an MIC (Candida albicans CCH 442 (code TT)) greater than 100 µg/mL, an MIC (Enterococcus faecism ATCC 8043 (code II)) of 6.2 µg/mL and an MIC (Escherichia coli DC-2 (code SS)) greater than 100 µg/mL. For the same compound, the MIC (Escherichia coli JUHL (code QQ)) was greater than 100 µg/mL, the MIC (Escherichia coli SS (code RR)) was 6.2 µg/mL and the MIC (Haemophilis influenzae DILL AMP R (code WW)) was greater than 128 µg/mL. It also gave an MIC (Micrococcus luteus ATCC 4698 (code PP)) of 6.2 µg/mL, an MIC (Micrococcus luteus ATCC 9341 (code OO)) of 0.78 µg/mL and an MIC (Mycobacterium smegmatis ATCC 114 (code UU)) greater than 100 µg/mL. For the same compound, the MIC (Nocardia Asteroides ATCC9970 (code VV)) was 6.2 µg/mL, the MIC (Staphylococcus aureus 1775 (code GG)) was greater than 100 µg/mL and the MIC (Staphylococcus aureus A5177 (code BB)) was 6.2 µg/mL. It also gave an MIC (Staphylococcus aureus A-5278 (code CC)) greater than 100 µg/mL, an MIC (Staphylococcus aureus ATCC 6538P (code AA)) of 6.2 µg/mL and an MIC (Staphylococcus aureus CMX 553 (code FF)) of 12.5 µg/mL. The MIC (Staphylococcus aureus CMX 642A (code DD)) was 12.5 µg/mL, the MIC (Staphylococcus aureus NCTC10649M (code EE)) was 12.5 µg/mL and the MIC (Staphylococcus epidermidis 3519 (code HH)) was 6.2 µg/mL. The MIC (Streptococcus Pneumonia 5649 (code ZZA)) was 16 µg/mL, the MIC (Streptococcus Pneumonia 5979 (code ZZ)) was greater than 128 µg/mL and the MIC (Streptococcus Pneumonia ATCC6303 (code XX)) was 8 µg/mL. For the same compound, the MIC (Streptococcus Pneumonia GYR 1171 (code YY)) was 4 µg/mL, the MIC (Streptococcus agalactiae CMX 508 (code KK)) was 1.56 µg/mL and the MIC (Streptococcus bovis A-5169 (code JJ)) was 1.56 µg/mL. The MIC (Streptococcus pyogenes 930 (code MM)) was greater than 100 µg/mL, the MIC (Streptococcus pyogenes EES61 (code LL)) was 3.1 µg/mL and the MIC (Streptococcus pyogenes PIU 2548 (code NN)) was 6.2 µg/mL.

Compound `CCC1OC(=O)C(C)C(=O)C(C)C(OC2OC(C)CC(N(C)C)C2O)C(C)(OCC2CC2c2cnc3ccccc3c2)CC(C)C(=O)C(C)C2NC(=O)OC12C` (stereo not drawn) [Example 243, Compound of Formula (IX): L is CO, T is NH, R is —CH2(2-(3-quinolyl)cyclopropyl)] has an MIC (organism code AA) of 0.05 µg/mL, an MIC (organism code BB) of 0.05 µg/mL and an MIC (organism code CC) greater than 100 µg/mL. For the same compound, the MIC (organism code DD) was 0.05 µg/mL, the MIC (organism code EE) was 0.1 µg/mL and the MIC (organism code FF) was 0.05 µg/mL. It also gave an MIC (organism code GG) greater than 100 µg/mL, an MIC (organism code HH) of 0.1 µg/mL and an MIC (organism code II) of 0.02 µg/mL. The MIC (organism code JJ) was 0.02 µg/mL, the MIC (organism code KK) was 0.02 µg/mL and the MIC (organism code LL) was 0.02 µg/mL. For the same compound, the MIC (organism code MM) was 6.2 µg/mL, the MIC (organism code NN) was 0.1 µg/mL and the MIC (organism code OO) was 0.02 µg/mL. It also gave an MIC (organism code PP) of 0.02 µg/mL, an MIC (organism code QQ) of 50 µg/mL and an MIC (organism code RR) of 0.2 µg/mL. The MIC (organism code SS) was 50 µg/mL, the MIC (organism code TT) was greater than 100 µg/mL and the MIC (organism code UU) was 0.39 µg/mL. The MIC (organism code VV) was 0.05 µg/mL, the MIC (organism code WW) was 4 µg/mL and the MIC (organism code XX) was 0.03 µg/mL. It also gave an MIC (organism code YY) of 0.03 µg/mL, an MIC (organism code ZZ) of 128 µg/mL and an MIC (organism code ZZA) of 0.25 µg/mL.

For `CCC1OC(=O)C(C)C(=O)C(C)C(OC2OC(C)CC(N(C)C)C2O)C(C)(OCC=Cc2cnc3ccc(F)cc3c2)CC(C)C(=O)C(C)C2NC(=O)OC12C` (stereo not drawn) [Example 215, R is —CH2CH═CH-(6-fluoro-3-quinolyl)], the MIC (organism code AA) was 0.05 µg/mL (≈ 0.0638 µM), the MIC (organism code BB) was 0.1 µg/mL (≈ 0.128 µM) and the MIC (organism code CC) was greater than 100 µg/mL. The MIC (organism code DD) was 0.1 µg/mL (≈ 0.128 µM), the MIC (organism code EE) was 0.1 µg/mL (≈ 0.128 µM) and the MIC (organism code FF) was 0.1 µg/mL (≈ 0.128 µM). For the same compound, the MIC (organism code GG) was greater than 100 µg/mL, the MIC (organism code HH) was 0.1 µg/mL (≈ 0.128 µM) and the MIC (organism code II) was 0.05 µg/mL (≈ 0.0638 µM). It also gave an MIC (organism code JJ) of 0.01 µg/mL (≈ 0.0128 µM), an MIC (organism code KK) of 0.01 µg/mL (≈ 0.0128 µM) and an MIC (organism code LL) of 0.01 µg/mL (≈ 0.0128 µM). The MIC (organism code MM) was 0.78 µg/mL (≈ 0.995 µM), the MIC (organism code NN) was 0.1 µg/mL (≈ 0.128 µM) and the MIC (organism code OO) was 0.01 µg/mL (≈ 0.0128 µM). The MIC (organism code PP) was 0.2 µg/mL (≈ 0.255 µM), the MIC (organism code QQ) was 25 µg/mL (≈ 31.9 µM) and the MIC (organism code RR) was 0.2 µg/mL (≈ 0.255 µM). For the same compound, the MIC (organism code SS) was greater than 100 µg/mL, the MIC (organism code TT) was greater than 100 µg/mL and the MIC (organism code UU) was 0.78 µg/mL (≈ 0.995 µM). For the same compound, the MIC (organism code VV) was 0.02 µg/mL (≈ 0.0255 µM), the MIC (organism code WW) was 2 µg/mL (≈ 2.55 µM) and the MIC (organism code XX) was 0.015 µg/mL (≈ 0.0191 µM). It also gave an MIC (organism code YY) of no more than 0.004 µg/mL, an MIC (organism code ZZ) of 16 µg/mL (≈ 20.4 µM) and an MIC (organism code ZZA) of 0.25 µg/mL (≈ 0.319 µM).

Work on `CC[C@H]1OC(=O)[C@H](C)C(=O)[C@H](C)[C@@H](O[C@@H]2O[C@H](C)C[C@H](N(C)C)[C@H]2O)[C@@](C)(OCC=O)C[C@@H](C)C(=O)[C@H](C)[C@H]2NC(=O)O[C@@]21C` [Example 220, Compound of Formula (IX): L is CO, T is NH, R is —CH2C(O)H] yielded an MIC (organism code AA) of 0.2 µg/mL, an MIC (organism code BB) of 0.39 µg/mL and an MIC (organism code CC) greater than 100 µg/mL. For the same compound, the MIC (organism code DD) was 0.2 µg/mL, the MIC (organism code EE) was 0.2 µg/mL and the MIC (organism code FF) was 0.2 µg/mL. The MIC (organism code GG) was greater than 100 µg/mL, the MIC (organism code HH) was 0.2 µg/mL and the MIC (organism code II) was 0.05 µg/mL. The MIC (organism code JJ) was no more than 0.005 µg/mL, the MIC (organism code KK) was 0.02 µg/mL and the MIC (organism code LL) was 0.01 µg/mL. It also gave an MIC (organism code MM) greater than 100 µg/mL, an MIC (organism code NN) of 0.39 µg/mL and an MIC (organism code OO) of 0.02 µg/mL. The MIC (organism code PP) was 0.2 µg/mL, the MIC (organism code QQ) was 12.5 µg/mL and the MIC (organism code RR) was 0.1 µg/mL. It also gave an MIC (organism code SS) of 12.5 µg/mL, an MIC (organism code TT) greater than 100 µg/mL and an MIC (organism code UU) of 3.1 µg/mL. It also gave an MIC (organism code VV) of 0.2 µg/mL, an MIC (organism code WW) of 2 µg/mL and an MIC (organism code XX) of 0.03 µg/mL. The MIC (organism code YY) was 0.06 µg/mL, the MIC (organism code ZZ) was greater than 128 µg/mL and the MIC (organism code ZZA) was 2 µg/mL.
